In US20230352136A1, “SYSTEMS AND METHODS TO EVALUATE DRUG-INDUCED GASTROINTESTINAL DYSRHYTHMIA” (The Chinese University of Hong Kong, priority 2022, published 2023):

How the values were obtained:
[1] = system: duodenum pacemaker potentials; assay: MEA recording of pacemaker potentials (slow waves), isolated duodenum; type: cell-based, Suncus murinus; conditions: for amplitude of slow waves: duodenum
Method: (§1) Pacemaker potentials were recorded extracellularly on a 60-channel MEA system using full-thickness GI segments isolated from Suncus murinus. Basic slow-wave parameters, including frequency, amplitude, slope, period, and power partitions, were derived. Signal regularity was also evaluated using detrended fluctuation analysis and sample entropy analysis.
(§2) Electrical recordings were taken after the animals were euthanised by carbon dioxide asphyxiation. […] The mesentery was removed, and the lumen contents were flushed with Krebs' medium. Segments (−1 cm) of duodenum, ileum, and colon were then isolated, but the stomach was kept intact. All tissue segments and the entire stomach were incubated in Krebs' medium containing nifedipine (1 μM; Sigma Aldrich, St Louis, MO, USA) for 15 min to inhibit smooth muscle activity. Pacemaker potentials were recorded using an MEA platform (MEA1060 1200×; Multichannel Systems, Reutlingen, Germany) as previously described. Briefly, tissues were placed onto the electrode field of an MEA chip (60-channel, 8×8 configuration, 3D-tip-shaped electrodes with a height of […] and an inter-electrode distance of 200 μm; Ayanda Biosystems SA, Lausanne, Switzerland). Intestinal segments were aligned horizontally to the recording electrode field, while the stomach was oriented with the antrum facing the recording electrode field. The chamber temperature was maintained at 37° C. and the sampling frequency was 1 kHz. […] All data were recorded and saved using MC_Rack (v 4.6.2, Multichannel Systems).
(§3) Data analysis included basic slow-wave feature extraction using a custom automated program. […] The time point of drug administration was automatically identified based on the signal disturbance. The period of signal disturbance (20 s before and 40 s after the peak of the disturbance) was excluded from the analysis. Data were filtered using a passband between 0.1 Hz and 1 Hz and a stopband between 0.01 Hz and 2 Hz. The basic slow-wave features extracted were similar to those extracted in the inventors' previous studies. However, instead of using several templates and scripts written in Microsoft Excel and Spike 2, a one-step automatic and blinded MATLAB programme was used for data analysis. There were four major changes to the data analysis process as compared to the inventors' previous studies. First, auto-identification of the drug disturbance time point was used, rather than manual identification. Second, standardised signal filters were built in MATLAB to match the entire data analysis pipeline. […] Frequency partitioning was performed by segmenting the power spectrum of 0-50 cpm into the following four segments: brady-rhythm (within the range 2-[DF−1] cpm), normal-rhythm ([DF±1] cpm), tachy-rhythm (within the range [DF+1]-40 cpm), and out-of-range frequencies (<2 cpm and >40 cpm). Third, waveforms were identified using the MATLAB ‘findpeaks’ function, with a minimum peak height of […] at baseline and […] after drug treatment, with a step time of 5.4 s for the intestine and 12 s for the stomach. The average peak-to-peak amplitude, slope, and period were derived for all detected waveforms. Fourth, propagation velocity was derived using phase-difference measurements, based on the auto-select seed electrode with the highest percentage of normal rhythms.
(§4) Dominant activation pattern identification included a phase-based analysis performed as previously described (Liu et al., 2021). Briefly, high-frequency spikes with amplitudes greater than […] were masked. Continuous frequencies were identified using continuous wavelet transformation, and the transformed data were used to plot spectrograms. […] High quality data were subjected to Hilbert transformation to identify the phase and frequency of the signals. Individual activation times were clustered using k-means clustering every 20 s and major activation patterns were grouped using a structural similarity index.

[2] = system: colon pacemaker potentials; assay: MEA recording of pacemaker potentials (slow waves), isolated colon; type: cell-based, Suncus murinus; conditions: colonic tissues
Method: as §1, §2, §3, §4

[3] = duodenal tissues, 0.1-100 μM, p>0.05, n=5-9

## Cl.NCCc1ccc(O)c(O)c1 [dopamine, 3-Hydroxytyramine hydrochloride]
[1]; duodenal tissues, 100 nM, baseline 2.52±0.21, p<0.05, n=7
  waveform period: 3.27 ± 0.47 s
[1]; duodenal tissues, 100 nM, baseline 2.65±0.08, p<0.01, n=6
  DFA fluctuation function (smaller scale 3-25): 2.51±0.05
[1]; duodenal tissues, 100 nM, baseline 12.5±5.7, p<0.05, n=7
  percentage of tachy-rhythms: 2.1±0.7%
[1]; duodenal tissues, 100 nM, baseline 23.3±5.7, p<0.05, n=7
  percentage of dominant baseline activation patterns, second pattern: 8.4±11.2%
[1]; duodenal tissues, 100 nM, baseline 24.1±2.0, p<0.05, n=7
  average frequency (AF): 20.9±0.7 cpm
[1]; duodenal tissues, 100 nM, baseline 27.1±2.2, p<0.05, n=7
  dominant frequency (DF) of slow waves: 24.9±1.2 cpm
[1]; duodenal tissues, 100 nM, baseline 32.3±11.8, p<0.01, n=7
  percentage of dominant baseline activation patterns, first pattern: 11.1±13.0%
[1]; duodenal tissues, 100 nM, baseline 35.7±10.3, p<0.0001, n=7
  percentage of brady-rhythms: 87.2±7.7%
[1]; duodenal tissues, 100 nM, baseline 46.1±11.2, p<0.001, n=7
  percentage of normal rhythms: 4.8±4.6%
[1]; duodenal tissues, 100 nM, baseline 321.7±95.5, p<0.01, n=7
  slope of waveforms: 166.9±57.7 μV s^−1
[1]; duodenal tissues, 100 nM, baseline […], p<0.01, n=6
  DFA fluctuation function (larger scale 26-46): 1.98±0.11
[1]; duodenal tissues, 1 μM, baseline 1.74±0.32, p<0.05, n=7
  DFA fluctuation function (larger scale 26-46): 1.63±0.38
[1]; duodenal tissues, 1 μM, baseline 6.2±1.0, p<0.05, n=6
  number of groups of activation patterns: 6.8±1.0
[1]; duodenal tissues, 1 μM, baseline 25.8±12.3, p<0.05, n=6
  percentage of brady-rhythms: 53.7±26.6%
[1]; duodenal tissues, 1 μM, baseline 33.7±13.1, p<0.05, n=6
  percentage of dominant baseline activation patterns, first pattern: 12.8±9.4%
[1]; duodenal tissues, 10 μM
  representative spectrogram, effect on DF: slightly shifted towards a lower frequency
[1]; duodenal tissues, 10 μM, 30 before treatment
  wave fronts counted in representative spatio-temporal map (1 min): 27
[1]; duodenal tissues, 10 μM, baseline 0.58±0.05, p<0.05, n=7
  average SampEn (smaller scale 1-5): 0.60±0.04
[1]; duodenal tissues, 10 μM, baseline 5.9±0.7, p<0.05, n=9
  number of groups of activation patterns: 6.4±0.5
[1]; duodenal tissues, 10 μM, baseline 10.2±9.1, p<0.05, n=5
  percentage of dominant patterns (based on post-treatment data, FIG. 3E), second pattern: 18.5±2.3%
[1]; duodenal tissues, 10 μM, baseline 52.4±14.7, p<0.05, n=9
  percentage of normal rhythms: 7.8±6.4%
[1]; duodenal tissues, 10 μM, baseline 202.4±50.6, p<0.05, n=9
  slope of waveforms: 153.9±47.7 μV s^−1
[1]; duodenal tissues, 100 μM, baseline 1.46±0.29, p<0.05, n=9
  DFA fluctuation function (larger scale 26-46): 1.36±0.31
[1]; duodenal tissues, 100 μM, baseline 2.44±0.72, p<0.05, n=5
  waveform period: 3.26 ± 1.29 s
[1]; duodenal tissues, 100 μM, baseline 15.2±2.1, p<0.05, n=4
  percentage of dominant baseline activation patterns, third pattern: 5.9±3.6%
[1]; duodenal tissues, 100 μM, baseline 20.3±10.8, p<0.05, n=4
  percentage of dominant patterns (based on post-treatment data, FIG. 3E), third pattern: 7.5±5.8%
[1]; duodenal tissues, 100 μM, baseline 25.1±3.7, p<0.05, n=5
  average frequency (AF): 22.2±5.4 cpm
[1]; duodenal tissues, 100 μM, baseline 28.6±4.1, p<0.05, n=5
  dominant frequency (DF) of slow waves: 26.3±5.2 cpm
[1]; duodenal tissues, 100 μM, baseline 29.3±5.5, p<0.01, n=4
  percentage of dominant baseline activation patterns, first pattern: 7.0±7.0%
[1]; duodenal tissues, 100 μM, baseline 43.3±11.6, p<0.05, n=5
  percentage of brady-rhythms: 68.6±29.0%
[1]; duodenal tissues, 100 μM, baseline 322.2±108.6, p<0.01, n=5
  slope of waveforms: 182.5±61.7 μV s^−1
[1]; duodenal tissues, 100 μM, baseline […], p<0.05, n=4
  percentage of dominant baseline activation patterns, second pattern: 7.4±4.1%
[1]; [3]
  dominant power (DP), change vs baseline: No significant differences
  propagation velocities, effect: did not affect
[1]; duodenal tissues, 0.1-100 μM, p>0.05, n=6-9
  average SampEn (larger scale 6-50), effect: did not change
[1]; duodenal tissues, 100 M, baseline 2.26±0.16, p<0.05, n=9
  DFA fluctuation function (smaller scale 3-25): 2.18±0.16
[1]; duodenal tissues, 100 M, baseline 11.0±5.2, p<0.05, n=5
  percentage of tachy-rhythms: 5.4±4.9%
[1]; 100 nM, baseline 193.0±54.9, p<0.01, n=7
  amplitude of slow waves: 114.1±37.7 μV
[1]; 10 μM, baseline 117.6±24.2, p<0.05, n=9
  amplitude of slow waves: 97.4±13.7 μV
[1]; 100 μM, baseline 199.3±60.5, p<0.01, n=5
  amplitude of slow waves: 121.1±27.3 μV
[2]; 100 nM, baseline 0.33±0.06, p<0.01, n=6
  average SampEn (larger scale 6-50): 0.28±0.07
[2]; 100 nM, baseline 0.59±0.03, p<0.01, n=6
  average SampEn (smaller scale 1-5): 0.62±0.03
[2]; 100 nM, baseline 1.80±0.09, p<0.001, n=6
  DFA fluctuation function (larger scale 26-46): 1.58±0.11
[2]; 100 nM, baseline 2.37±0.07, p<0.01, n=6
  DFA fluctuation function (smaller scale 3-25): 2.26±0.06
[2]; 100 nM, baseline 23.9±2.4, p<0.05, n=7
  average frequency (AF): 23.3±1.6 cpm
[2]; 1 μM, baseline 2.30±0.33, p<0.05, n=8
  DFA fluctuation function (smaller scale 3-25): 2.23±0.34
[2]; 1 μM, baseline 5.4±1.0, p<0.05, n=6
  number of groups of activation patterns: 6.4±1.1
[2]; 1 μM, baseline 18.3±12.6, p<0.05, n=6
  percentage of tachy-rhythms: 55.5±34.8%
[2]; 1 μM, baseline 19.1±12.2, p<0.05, n=6
  percentage of dominant patterns (based on post-treatment data, FIG. 3E), first pattern: 39.6±15.6%
[2]; 1 μM, baseline 41.4±9.7, p<0.01, n=6
  percentage of normal rhythms: 14.5±18.1%
[2]; 10 μM
  propagation direction and speed in video (FIGS. 12A-12B): relatively constant
  representative spectrogram, effect: extra peaks appeared to the right of the original DF
[2]; 10 μM, 32 before treatment
  wave fronts counted in representative spatio-temporal map (1 min): 32
[2]; 10 μM, baseline 0.57±0.06, p<0.05, n=6
  average SampEn (smaller scale 1-5): 0.60±0.04
[2]; 10 μM, baseline 2.24±0.23, p<0.05, n=6
  DFA fluctuation function (smaller scale 3-25): 2.11±0.27
[2]; 10 μM, baseline 6±0.7, p<0.05, n=9
  number of groups of activation patterns: 6.8±1.1
[2]; 10 μM, baseline 42.4±6.9, p<0.05, n=9
  percentage of normal rhythms: 13.1±17.4%
[2]; 100 μM, baseline 1.63±0.19, p<0.05, n=10
  DFA fluctuation function (larger scale 26-46): 1.46±0.21
[2]; 100 μM, baseline 2.31±0.12
  DFA fluctuation function (smaller scale 3-25): 2.19±0.13
[2]; 100 μM, baseline 20.3±10.8, p<0.0001, n=5
  percentage of dominant patterns (based on post-treatment data, FIG. 3E), third pattern: 7.5±5.8%
[2]; 100 μM, baseline 34.4±3.7, p<0.01, n=4
  percentage of dominant baseline activation patterns, first pattern: 11.4±12.9%
[2]; 100 μM, baseline 34.7±9.1, p<0.05, n=6
  percentage of brady-rhythms: 53.9±26.8%
[2]; 100 μM, baseline 53.1±8.1, p<0.05, n=6
  percentage of normal rhythms: 33.4±23.3%
[2]; 100 μM, baseline 267.3±80.9, p<0.01, n=6
  amplitude of slow waves: 199.7±48.8 μV
[2]; 100 μM, baseline 439.3±124.3, p<0.001, n=6
  slope of waveforms: 299.0±76.5 μV s^−1
[2]; 0.1-100 μM, p>0.05, n=6-9
  dominant frequency (DF), change vs baseline: No significant differences
  dominant power (DP), change vs baseline: No significant differences
  propagation velocities, effect: did not affect
  waveform period, change vs baseline: No significant differences
[2]; 1 M, baseline 0.57±0.06, p<0.01, n=8
  average SampEn (smaller scale 1-5): 0.59±0.05
[2]; 1 M, baseline 1.74±0.26, p<0.01, n=8
  DFA fluctuation function (larger scale 26-46): 1.61±0.29
[2]; 10 M, baseline 1.73±0.16, p<0.05, n=6
  DFA fluctuation function (larger scale 26-46): 1.53±0.19
